Experimental data from US20200383985A1, “Inhibitors of Protease Activated Receptor-2” (Endosome Therapeutics, Inc., priority 2017, published 2020).
Read-outs that look alike come from different tables or passages of the source. Blank lines part the entries; values can stand above or below the compound they belong to. Starred links: 1 amine or outer side, 2 acyl side, 3 side chain; linkers in the order of their positions; H or OH if unused. Positions of bridges follow the written chain, without caps; N, C: chain ends. Non-standard residues stand in square brackets, D forms with d. Residues, ends and D or L forms follow the SMILES beside them. *: point of attachment. Leu(3R-OH,Nα-propionyl) = CCC(=O)N[C@H](C(=O)*)[C@H](O)C(C)C; X1 = CC(C)[C@@H](O[*:3])[C@H](N[*:1])C(=O)[*:2]; NMeT = CN[C@H](C(=O)O)[C@@H](C)O; dPhLac = O=C(O)[C@H](O)Cc1ccccc1; NMeA = CN[C@@H](C)C(=O)O; NMeDha = C=C(NC)C(=O)O

Experiments:
Assay type in all cases: cell-based
[1] = system: cytosolic and nuclear ERK; assay: FRET assays of cytosolic and nuclear ERK in HEK293 cells; conditions: UBO-QIC 100 nM, G66983 1 μM; for trypsin-stimulated activation of cytosolic ERK: AG1478 1 μM
Experimental: Trypsin-induced ERK signaling mediated by endosomal PAR2 signaling was investigated in HEK293 cells expressing Flag-PAR2-HA11 and FRET biosensors for cytosolic and nuclear ERK (CytoEKAR, NucEKAR), plasma membrane and cytosolic PKC (pmCKAR, CytoCKAR), and plasma membrane and cytosolic cAMP (pmEpac, CytoEpac). […] I-343 (10 μM) but not SCH530348 (100 nM) inhibited trypsin activation of cytosolic and nuclear ERK (FIG. 5G). PS2 and DynK44E inhibited trypsin-stimulated activation of cytosolic and nuclear ERK when compared to PS2 inact and DynWT controls (FIG. 5H, 5I, 17G-J). AG1478 (1 μM), an inhibitor of EGF receptor tyrosine kinase (Levitzki, A. & Gazit, A. Science 1995, 267(5205): 1782-1788), UBO-QIC (100 nM), which inhibits Gαq and certain Gβγ signals ([…]), and G66983 (1 μM), which inhibits all isoforms of PKC (Gschwendt, M, et al., FEBS Lett 1996, 392(2): 77-80), suppressed trypsin-stimulated activation of cytosolic ERK (FIGS. 5J and 17K).
HEK293 cells were cultured in DMEM supplemented with 10% (v/v) FBS (5% CO2, 37° C.). When necessary serum restriction was achieved by replacing culture medium with DMEM containing 0.5% FBS overnight. Cells were transiently transfected using polyethylenimine (PEI) (1:6 DNA:PEI).
HEK293 cells were transiently transfected in 10 cm dishes (˜50% confluency) with Flag-PAR2-HA (2.5 μg) and FRET biosensors CytoEKAR or NucEKAR (2.5 μg) (Jensen, D. D. et al., Sci Transl Med. 2017, 9(392), eaal3447; Thomsen, A. R. B., et al., Cell 2016, 166(4): 907-919). In experiments examining the role of dynamin, cells were transfected with FLAG-PAR2-HA (1.25 μg), FRET biosensor (1.25 μg) and either DynWT-HA, DynK44E-HA or pcDNA3.1 (2.5 μg). At 24 h after transfection, cells were seeded on ViewPlate-96 well plates (PerkinElmer). FRET was assessed 72 h post-transfection, following overnight serum restriction. Cells were equilibrated in HBSS-HEPES (30 min, 37° C.). FRET was measured using a PHERAstar FSX Microplate Reader (BMG LabTech). For CFP/YFP emission ratio analysis, cells were sequentially excited using a CFP filter (425/10 nm) with emission measured using YFP (550/50 nm) and CFP (490/20 nm) filters. FRET was measured before and after stimulation with trypsin (10 nM), NE (100 nM), CS (100 nM), phorbol 12,13-dibutyrate, PDBu (positive control, 1 μM), or vehicle. FRET ratios (donor/acceptor intensity for EKAR, or acceptor/donor intensity for CKAR and Epac) were calculated and corrected to baseline and vehicle treatments to determine ligand-induced FRET (ΔFRET). Treatment effects were determined by comparison of area under the curve values. Signalling inhibitors were dissolved in HBSS-HEPES. PS2 and PS2 inact were dissolved in HBSS-HEPES+1% DMSO. Cells were incubated with UBO-QIC (100 nM), AG1478 (1 μM), G66983 (1 μM), PS2 or PS2 inact (30 μM) or vehicle (30 min preincubation, inclusion throughout).

[2] = target: T1, human (h) PAR2 (Homo sapiens, UniProt P55085); assay: IP1 accumulation assay in KNRK-hPAR2 cells; conditions: 100 nM 2F; 30 μM of antagonist; read-out: KNRK-PAR2 100 nM 2F: ND (inhibition of 2F at 30 μM of antagonist)
T1 construct: expressed in transfected cells; host or cells: KNRK cells (KNRK-hPAR2)
T1 sequence (P55085 26-397): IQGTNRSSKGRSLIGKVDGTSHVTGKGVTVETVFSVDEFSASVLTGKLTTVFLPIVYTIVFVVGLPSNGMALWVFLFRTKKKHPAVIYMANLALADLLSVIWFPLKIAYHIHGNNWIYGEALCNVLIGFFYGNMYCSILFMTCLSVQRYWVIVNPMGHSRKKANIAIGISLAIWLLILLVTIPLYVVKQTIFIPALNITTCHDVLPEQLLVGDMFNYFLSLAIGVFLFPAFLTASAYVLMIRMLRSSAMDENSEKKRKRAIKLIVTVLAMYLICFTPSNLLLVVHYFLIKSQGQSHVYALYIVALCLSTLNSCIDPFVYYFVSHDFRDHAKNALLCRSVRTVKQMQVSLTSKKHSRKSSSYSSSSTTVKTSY
Experimental: (§1) KNRK-hPAR2, KNRK or HT-29 cells were seeded at a density of 50×10^3 cells/well in a clear poly-d-lysine coated 96 well tissue culture plate. Following 24 h incubation at 37° C. and 5% CO2, media was removed and replaced with 80 μl IP1 stimulation buffer (10 mM HEPES, 1 mM CaCl2, 0.5 mM MgCl2, 4.2 mM KCl, 146 mM NaCl, 5.5 mM glucose, 50 mM LiCl). Following stimulation buffer addition, the wells received 10 μl of 10× antagonists or DMSO vehicle. All plates were further incubated at 37° C., 5% CO2 for 30 min. 10 μl of 2F or ATP was added to the plates and further incubated for 40 min. Following incubation, stimulation buffer was quickly removed by aspiration and replaced with 25 μl lysis buffer (IP-One HTRF® assay kit, Cisbio). Following incubation of the lysates at 37° C., 5% CO2 for 10′, 10 μl lysate was transferred to a 384-well OptiPlate (PerkinElmer) and detected using the IP-One HTRF® assay kit (Cisbio).
(§2) Compounds of the invention (added at 10×concentrations in a 10 μL volume) were incubated for 30 min prior to the addition of 10 μM ATP or 100 nM or 300 nM PAR2 agonist (2F; EC80, added at 10×concentrations in a 10 μL volume) and then further incubated for 40 min. After lysis, the inositol phosphate 1 was quantified with IP-One HTRF® assay kit, Cisbio. The data was analysed with Prism, GraphPad to calculate the IC50 values, shown below in Table 1.
(§3) Inhibition of PAR2 signaling with known PAR2 inhibitor I-343 (FIG. 14A) was investigated in HT-29 cells and HEK293 cells, which express endogenous PAR2, and in KNRK cells expressing human (h) PAR2. Accumulation of inositol phosphate-1 (IP1) was measured in response to the PAR2-selective agonist 2-Furoyl-LIGRLO-NH2 (2F), an analogue of the trypsin-exposed tethered ligand, or trypsin.
(§4) KNRK-hPAR2, KNRK, HEK293, or HT-29 cells were seeded at a density of 50×10^3 cells/well onto clear 96-well plates (PerkinElmer). After 24 h of culture, medium was replaced with IP1 stimulation buffer (10 mM HEPES, 1 mM CaCl2, 0.5 mM MgCl2, 4.2 mM KCl, 146 mM NaCl, 5.5 mM glucose, 50 mM LiCl; 37° C., 5% CO2.). Cells were pre-incubated with the antagonist or vehicle for 30 min prior to the addition of agonist. Cells were then further incubated for 40 min. Stimulation buffer was […]

[3] = target: T2, PAR2 (Homo sapiens, UniProt P55085); assay: IP1 accumulation assay in HT-29 cells (endogenous PAR2); conditions: 2F (300 nM)-induced IP1, HT-29 cells
T2 construct: HT-29 cells and HEK293 cells, which express endogenous PAR2; endogenous in cells; host or cells: HT-29
T2 sequence (P55085 26-397): T1 sequence (P55085 26-397)
Experimental: as §1, §2, §3, §4

[4] = read-out: HT-29 300 nM 2F (IC50)

Structure (SMILES): COc1cc2ncnc(Nc3cccc(Cl)c3)c2cc1OC [AG1478]
trypsin-stimulated activation of cytosolic ERK [1]: suppressed

Structure (SMILES): CC(C)CCC[C@@H](C)[C@H]1CCC2C3CCC4C[C@@H](OC(=O)C[C@H](NC(=O)CCOCCOCCOCCOCCOCCOCCOCCOCCNC(=O)CCCNC(=O)Cn5cc(C(=O)N6CCN(C(=O)c7cn8nc(-c9ccc(F)cc9)cc(C(C)(C)C)c8n7)C(C)(C)C6)nn5)C(N)=O)CC[C@]4(C)C3CC[C@@]21C (stereo partly drawn) [Compound 13, (3S,10S,13R,17R)-10,13-dimethyl-17-((R)-6-methylheptan-2-yl)hexadecahydro-1H-cyclopenta[a]phenanthren-3-yl (37S)-1-(4-(4-(8-(tert-butyl)-6-(4-fluorophenyl)imidazo[1,2-b]pyridazine-2-carbonyl)-3,3-dimethylpiperazine-1-carbonyl)-1H-1,2,3-triazol-1-yl)-37-carbamoyl-2,7,35-trioxo-11,14,17,20,23,26,29,32-octaoxa-3,8,36-triazanonatriacontan-39-oate]
inhibition at 30 µM [2]: < 50% | IC50 [3, 4]: 736 nM

Structure (SMILES): CC(C)CCC[C@@H](C)[C@H]1CC[C@H]2[C@@H]3CCC4CC(OC(=O)C[C@H](NC(=O)CCOCCOCCOCCOCCOCCOCCNC(=O)[C@H](CCCNC(=N)N)NC(=O)CCOCCOCCOCCOCCOCCOCCNC(=O)Cn5cc(C(=O)N6CCN(C(=O)c7cn8nc(-c9ccc(F)cc9)cc(C(C)(C)C)c8n7)C(C)(C)C6)nn5)C(N)=O)CC[C@]4(C)[C@H]3CC[C@]12C (stereo partly drawn) [Compound 14]
inhibition at 30 µM [2]: < 50% | IC50 [3, 4]: 1550 nM

inhibition at 30 µM [2]: < 50% | IC50 ([3]; read-out: HT-29 300 nM 2F pIC50 ± SEM (converted)): 47.2 nM
Structure (SMILES): CCCCCCCCCCCCCCCCNC(=O)C[C@H](NC(=O)CCOCCOCCOCCOCCOCCOCCOCCOCCOCCOCCOCCOCCNC(=O)Cn1cc(C(=O)N2CCN(C(=O)c3cn4nc(-c5ccc(F)cc5)cc(C(C)(C)C)c4n3)C(C)(C)C2)nn1)C(N)=O [Compound 15, (S)-3-(1-(4-(4-(8-(tert-butyl)-6-(4-fluorophenyl)imidazo[1,2-b]pyridazine-2-carbonyl)-3,3-dimethylpiperazine-1-carbonyl)-1H-1,2,3-triazol-1-yl)-2-oxo-6,9,12,15,18,21,24,27,30,33,36,39-dodecaoxa-3-azadotetracontan-42-amido)-N1-hexadecylsuccinamide]

Structure (SMILES): CC(C)CCC[C@@H](C)[C@H]1CC[C@H]2[C@@H]3CC[C@@H]4C[C@@H](OC(=O)C[C@H](NC(=O)CCOCCOCCOCCOCCOCCOCCNC(=O)[C@@H](O)[C@H](O)[C@H](O)[C@@H](O)C(=O)NC5CCC(C(=O)N6CCN(C(=O)c7cn8nc(-c9ccc(F)cc9)cc(C(C)(C)C)c8n7)C(C)(C)C6)CC5)C(N)=O)CC[C@]4(C)[C@H]3CC[C@]12C (stereo partly drawn) [Compound 16, (3S,5R,8R,9S,10S,13R,14S,17R)-10,13-dimethyl-17-((R)-6-methylheptan-2-yl)hexadecahydro-1H-cyclopenta[a]phenanthren-3-yl (3S,28S,29R,30S,31R)-32-((4-(4-(8-(tert-butyl)-6-(4-fluorophenyl)imidazo[1,2-b]pyridazine-2-carbonyl)-3,3-dimethylpiperazine-1-carbonyl)cyclohexyl)amino)-3-carbamoyl-28,29,30,31-tetrahydroxy-5,27,32-trioxo-8,11,14,17,20,23-hexaoxa-4,26-diazadotriacontanoate]
inhibition at 30 µM [2]: < 50% | IC50 [3, 4]: 2070 nM

Structure (SMILES): CC(C)CCC[C@@H](C)[C@H]1CC[C@H]2[C@@H]3CC=C4C[C@@H](OC(=O)NCCCC[C@@H](NC(=O)CCOCCOCCOCCOCCOCCOCCOCCOCCOCCOCCOCCOCCNC(=O)Cn5cc(C(=O)N6CCN(C(=O)c7cn8nc(-c9ccc(F)cc9)cc(C(C)(C)C)c8n7)C(C)(C)C6)nn5)C(=O)NN)CC[C@]4(C)[C@H]3CC[C@]12C [Compound 17]
inhibition at 30 µM [2]: < 50% | IC50 [3, 4]: 5630 nM

Structure (SMILES): COc1ccc2c(c1)c(C1=C(c3c[nH]c4ccccc34)C(=O)NC1=O)cn2CCCN(C)C [Compound G66983]
trypsin-stimulated activation of cytosolic ERK [1]: suppressed | trypsin-stimulated activation of nuclear ERK [1]: inhibited

Structure (SMILES): C=C1C(=O)N[C@@H](C)C(=O)N(C)[C@@H](C)C(=O)N[C@@H]([C@H](OC(=O)[C@@H](NC(=O)CC)[C@H](O)C(C)C)C(C)C)C(=O)N(C)[C@@H]([C@@H](C)OC)C(=O)O[C@H](C(C)C)[C@H](NC(C)=O)C(=O)O[C@H](Cc2ccccc2)C(=O)N1C [UBO-QIC] (Ac-[X1][dPhLac][NMeDha]A[NMeA][X1](Leu(3R-OH,Nα-propionyl))[NMeT](Me); ester 1-C)
trypsin-stimulated activation of cytosolic ERK [1]: suppressed | trypsin-stimulated activation of nuclear ERK [1]: inhibited
